Test results as given in patent US10359436B2, “Nuclear stress response in motor neuron disease and other neurological diseases” (DIGNITY HEALTH, priority 2013, dated 2019).

Tested on: HEK293 cells
Experiment: Quantitative immunocolocalization of RBM45 with the nuclear stress body marker HSF1 in stressed HEK293 cells
Format: cell-based
Conditions: mitoxantrone treatment as cellular stress, quantitative immunocolocalization analysis
Description: An imaging-based approach combining immunofluorescence microscopy (IF), digital deconvolution (DD), and automated image analysis (IA) is used to examine RBM45 redistribution and colocalization with markers of subnuclear structures in response to heat shock and mitoxantrone (topoisomerase II inhibitor, genotoxic stress).
For immunocytochemistry experiments, HEK293 cells were grown and stained with antibodies, as above. Corresponding images were subjected to digital deconvolution, counting as above, and quantitative immunocolocalization with markers of subnuclear structures.
Digital deconvolution is a mathematical post-processing method that removes out of focus light from wide field fluorescent microscopic images, based on the mathematical modeling of the behavior of light in a given imaging system, called the point spread function (PSF). The effect of deconvolution is similar, in practice, to using a confocal microscope. […] Several deconvolution procedures exist, which vary in complexity/algorithm. […]
During image analysis, counts are based on thresholding of image pixel intensity values and counts are made using particle detection algorithms (vary size/circularity). On example of colocalization analysis is quantitative immunocolocalization analysis as described in Li et al., 2004. […]

O=C1c2c(O)ccc(O)c2C(=O)c2c(NCCNCCO)ccc(NCCNCCO)c21 [mitoxantrone]
colocalization of RBM45 with the nuclear stress body marker HSF1: significant colocalization
